From patent US20040147554A1, “Crystalline form of (3R,4R)-4-[3-(S)-hydroxy-3-(6-methoxy-quinolin-4-yl)propyl]-1-[2-2thienylthio)ethyl] piperidine-3-carboxylic acid” (Aventis Pharms S.A., priority 2002, published 2004)

Key:
Assay type in all cases: physicochemical
[1] = Stability of the crystalline form versus humidity (powder X-ray diffraction)
Experimental: The analyses are carried out on a Bruker D8 diffractometer having a copper-anticathode tube equipped with a front monochromator (wavelength of the copper Kα1 line: 1.54060 Å). The arrangement is of Bragg-Brentano type, with a point scintillation detector. The angular range swept extends from 2 to 40 degrees 2θ with a step of 0.02 degrees 2θ. The counting time is 120 seconds per step.
Form C of (3R,4R)-4-[3-(S)-hydroxy-3-(6-methoxyquinolin-4-yl)propyl]-1-[2-(2-thienylthio)ethyl]piperidine-3-carboxylic acid is a monohydrate form. It is stable at 25° C. and at the degree of ambient humidity. It is particularly stable between 50% and 100% humidity.

[2] = Loss in mass on heating below 50% humidity (dehydration); settings: between 25° C. and 75° C., 1 mole of water/mole of the acid, dehydration to form B
Experimental: Below 50% humidity, a loss in mass of 3.7% by weight is recorded between 25° C. and 75° C. (1 mole of water/mole of the acid). This loss in mass corresponds to the dehydration of the form C to give another form of (3R,4R)-4-[3-(S)-hydroxy-3-(6-methoxyquinolin-4-yl)propyl]-1-[2-(2-thienylthio)ethyl]piperidine-3-carboxylic acid, hereinafter known as form B.

[3] = Stability of the crystalline form in alcohol/water mixtures; settings: methanol/water or ethanol/water (1/1 by volume), after 30 days
Experimental: by stirring a suspension of form A at a temperature of 20° C.-25° C., in tetrahydrofuran/demineralized water (50/50 by volume), methyl ethyl ketone/demineralized water (80/20 by volume to 20/80 by volume), acetonitrile/demineralized water (50/50 by volume to 20/80 by volume) or ethanol or methanol/demineralized water (50/50 by volume) mixtures, for 5 days to about 30 days.

Row | humidity up to which the form is stable ([1]; humidity) | stability of the crystalline form ([1]; 25° C., ambient humidity) | stability by powder X-ray diffraction ([1]; 97% humidity, 20° C., after 11 weeks) | loss in mass [2] [% by weight] | stability of the crystalline form in solvent mixture [3] | Structure (SMILES)
1 | up to 30% | – | – | – | – | COc1ccc2nccc([C@@H](O)CC[C@@H]3CCN(CCSc4cccs4)C[C@@H]3C(=O)O)c2c1 [Form B, (3R,4R)-4-[3-(S)-hydroxy-3-(6-methoxyquinolin-4-yl)propyl]-1-[2-(2-thienylthio)ethyl]piperidine-3-carboxylic acid]
2 | – | stable | stability in the monohydtrate form | 3.7 | stable | COc1ccc2nccc([C@@H](O)CC[C@@H]3CCN(CCSc4cccs4)C[C@@H]3C(=O)O)c2c1 [Form C, (3R,4R)-4-[3-(S)-hydroxy-3-(6-methoxyquinolin-4-yl)propyl]-1-[2-(2-thienylthio)ethyl]piperidine-3-carboxylic acid]
